# Measurements: patent US20030162762A1, “Novel cephalosporin compounds and process for preparing the same” (priority 2000, published 2003)
# Legend:
# Assay in all cases: Minimum Inhibitory Concentration (MIC), agar dilution, standard strains
# [1] = system: S. aureus 241; assay type: cell-based, Staphylococcus aureus; details: Table 1, Mueller-Hinton agar, 37° C., 20 hours; for MIC: Staphylococcus aureus, 241, read-out: Minimum Inhibitory Concentration, S. aureus 241
# Protocol: (§1) The effectiveness of the compound according to the present invention was determined by obtaining Minimum Inhibitory Concentration (MIC) of the compounds prepared by the above examples (Compounds I-1 to I-41) and vancomycin, which is the known compound having a potent activity against gram-positive strains, as the control drug against the standard strains. Specifically, Minimum Inhibitory Concentration was obtained by diluting the test compound according to a double dilution method, dispersing them in Mueller-Hinton agar medium, inoculating each of the test strain having 10^7 cfu (colony forming unit) per ml in an amount of 2 μl to the medium and then incubating them at 37° C. for 20 hours. From the result of Minimum Inhibitory Concentration test, it can be seen that the compound according to the present invention has a good activity against major pathogenic microorganisms, which cause hospital infection, including MRSA strains.
# [2] = system: S. aureus 77; assay type: cell-based, Staphylococcus aureus; details: Table 1, Mueller-Hinton agar, 37° C., 20 hours; for MIC: Staphylococcus aureus, 77, read-out: Minimum Inhibitory Concentration, S. aureus 77
# Protocol: as §1
# [3] = system: S. epidermidis R005; assay type: cell-based; details: Table 1, Mueller-Hinton agar, 37° C., 20 hours; for MIC: Staphylococcus epidermidis, R005, read-out: Minimum Inhibitory Concentration, S. epidermidis R005
# Protocol: as §1
# [4] = system: E. faecalis L239; assay type: cell-based; details: Table 1, Mueller-Hinton agar, 37° C., 20 hours; for MIC: Enterococcus faecalis, L239, read-out: Minimum Inhibitory Concentration, E. faecalis L239
# Protocol: as §1
# [5] = system: Staphylococcus aureus giorgio; assay type: cell-based; details: Table 1, Mueller-Hinton agar, 37° C., 20 hours; for MIC: Staphylococcus aureus, read-out: Minimum Inhibitory Concentration, Staphylococcus aureus giorgio
# Protocol: as §1
MIC [1],MIC [2],MIC [3],MIC [4],MIC [5],Structure (SMILES),"Minimum Inhibitory Concentration, S. aureus 241 [1]","Minimum Inhibitory Concentration, S. aureus 77 [2]","Minimum Inhibitory Concentration, S. epidermidis R005 [3]","Minimum Inhibitory Concentration, E. faecalis L239 [4]","Minimum Inhibitory Concentration, Staphylococcus aureus giorgio [5]"
,,,,,"CC[n+]1c(N)cc(N)nc1SC/C=C/C1=C(C(=O)O)N2C(=O)[C@@H](NC(=O)CSc3cc(Cl)ccc3Cl)[C@H]2SC1 [Compound I-29, (6R,7R)-4,6-diamino-2-({(E)-3-[2-carboxy-7-({2-[(2,5-dichlorophenyl)sulfanyl]acetyl}amino)-8-oxo-5-thia-1-azabicyclo[4.2.0]oct-2-en-3-yl]-2-propenyl}sulfanyl)-1-ethylpyrimidin-1-ium]",1 µg/mL,0.063 µg/mL,0.031 µg/mL,0.13 µg/mL,<0.008 µg/mL
,,,,,Cc1nc(N)cc[n+]1C/C=C/C1=C(C(=O)O)N2C(=O)[C@@H](NC(=O)CSc3cc(Cl)ccc3Cl)[C@H]2SC1 [Compound I-33],2 µg/mL,0.26 µg/mL,0.063 µg/mL,0.5 µg/mL,<0.008 µg/mL
,,,,,Nc1cc(N)[n+](C/C=C/C2=C(C(=O)O)N3C(=O)[C@@H](NC(=O)CSc4cc(Cl)ccc4Cl)[C@H]3SC2)cn1 [Compound I-36],1 µg/mL,0.13 µg/mL,0.063 µg/mL,0.25 µg/mL,<0.008 µg/mL
4 µg/mL,0.13 µg/mL,0.13 µg/mL,0.5 µg/mL,< 0.008 µg/mL,"Nc1cc(SC/C=C/C2=C(C(=O)O)N3C(=O)[C@@H](NC(=O)CSc4cc(Cl)ccc4Cl)[C@H]3SC2)nc(N)n1 [Compound I-3, (6R,7R)-3-{(E)-3-[(2,6-diamino-4-pyrimidinyl)sulfanyl]-1-propenyl}-7-({2-[(2,5-dichlorophenyl)sulfanyl]acetyl}amino)-8-oxo-5-thia-1-azabicyclo[4.2.0]oct-2-ene-2-carboxylic acid]",,,,,
,,,,,"Cc1nc(N)cc(N(C)C)[n+]1C/C=C/C1=C(C(=O)O)N2C(=O)[C@@H](NC(=O)CSc3cc(Cl)ccc3Cl)[C@H]2SC1 [Compound I-37, 4-amino-1-{(E)-3-[(6R,7R)-2-carboxy-7-({2-[(2,5-dichlorophenyl)sulfanyl]acetyl}amino)-8-oxo-5-thia-1-azabicyclo[4.2.0]oct-2-en-3-yl]-2-propenyl}-6-(dimethylamino)-2-methylpyrimidin-1-ium]",4 µg/mL,0.25 µg/mL,0.25 µg/mL,0.5 µg/mL,0.016 µg/mL
16 µg/mL,0.5 µg/mL,1 µg/mL,2 µg/mL,0.063 µg/mL,"Nc1ncnc(SC/C=C/C2=C(C(=O)O)N3C(=O)[C@@H](NC(=O)CSc4cc(Cl)ccc4Cl)[C@H]3SC2)c1N [Compound I-25, (6R,7R)-3-{(E)-3-[(5,6-diamino-4-pyrimidinyl)sulfanyl]-1-propenyl}-7-({2-[(2,5-dichlorophenyl)sulfanyl]acetyl}amino)-8-oxo-5-thia-1-azabicyclo[4.2.0]oct-2-ene-2-carboxylic acid]",,,,,
,,,,,"Nc1cc[n+](C/C=C/C2=C(C(=O)O)N3C(=O)[C@@H](NC(=O)CSc4cc(Cl)ccc4Cl)[C@H]3SC2)cn1 [Compound I-2, 4-amino-1-{(E)-3-[(6R,7R)-2-carboxy-7-({2-[(2,5-dichlorophenyl)sulfanyl]acetyl}amino)-8-oxo-5-thia-1-azabicyclo[4.2.0]oct-2-en-3-yl]-2-propenyl}pyrimidin-1-ium]",4 µg/mL,0.25 µg/mL,0.25 µg/mL,1 µg/mL,<0.008 µg/mL
,,,,,Nc1nc2cc(N)[n+](C/C=C/C3=C(C(=O)O)N4C(=O)[C@@H](NC(=O)CSc5cc(Cl)ccc5Cl)[C@H]4SC3)cn2n1 [Compound I-32],4 µg/mL,0.5 µg/mL,0.25 µg/mL,1 µg/mL,0.016 µg/mL
4 µg/mL,0.25 µg/mL,0.13 µg/mL,0.5 µg/mL,0.016 µg/mL,"Nc1cc(N)nc(SC/C=C/C2=C(C(=O)O)N3C(=O)[C@@H](NC(=O)CSc4cc(Cl)ccc4Cl)[C@H]3SC2)n1 [Compound I-24, (6R,7R)-3-{(E)-3-[(4,6-diamino-2-pyrimidinyl)sulfanyl]-1-propenyl}-7-({2-[(2,5-dichlorophenyl)sulfanyl]acetyl}amino)-8-oxo-5-thia-1-azabicyclo[4.2.0]oct-2-ene-2-carboxylic acid]",,,,,
,,,,,Nc1cc(SC/C=C/C2=C(C(=O)O)N3C(=O)[C@@H](NC(=O)CNc4cc(Cl)ccc4Cl)[C@H]3SC2)nc(N)n1 [Compound I-5],16 µg/mL,0.5 µg/mL,0.5 µg/mL,1 µg/mL,0.031 µg/mL
16 µg/mL,0.5 µg/mL,0.5 µg/mL,2 µg/mL,0.016 µg/mL,"CNc1cc(N)nc(SC/C=C/C2=C(C(=O)O)N3C(=O)[C@@H](NC(=O)CSc4cc(Cl)ccc4Cl)[C@H]3SC2)n1 [Compound I-30, (6R,7R)-3-((E)-3-{[4-amino-6-(methylamino)-2-pyrimidinyl]sulfanyl}-1propenyl)-7-({2-[(2,5-dichlorophenyl)sulfanyl]acetyl}amino)-8-oxo-5-thia-1-azabicyclo [4.2.0]oct-2-ene-2-carboxylic acid]",,,,,
32 µg/mL,0.25 µg/mL,0.25 µg/mL,0.5 µg/mL,0.016 µg/mL,"CSc1nc(C)cc(SC/C=C/C2=C(C(=O)O)N3C(=O)[C@@H](NC(=O)CSc4cc(Cl)ccc4Cl)[C@H]3SC2)n1 [Compound I-28, (6R,7R)-7-({2-[(2,5-dichlorophenyl)sulfanyl]acetyl}amino)-3-((E)-3-{[6-methyl-2-(methylsulfanyl)-4-pyrimidinyl]sulfanyl}-1propenyl)-8-oxo-5-thia-1-azabicyclo [4.2.0]oct-2-ene-2-carboxylic acid]",,,,,
,,,,,O=C(CSc1cc(Cl)ccc1Cl)N[C@@H]1C(=O)N2C(C(=O)O)=C(/C=C/CSc3ncnc4[nH]ncc34)CS[C@H]12 [Compound I-27],2 µg/mL,0.13 µg/mL,0.13 µg/mL,0.13 µg/mL,<0.008 µg/mL
,,,,,Cc1c(N)nc[n+](C/C=C/C2=C(C(=O)O)N3C(=O)[C@@H](NC(=O)CSc4cc(Cl)ccc4Cl)[C@H]3SC2)c1N [Compound I-31],8 µg/mL,1 µg/mL,0.25 µg/mL,2 µg/mL,0.016 µg/mL
